Test results published in the supplement of paper PMC13380429.
± gives the standard deviation of the averaged measurements.

Columns and labels:
Conditions in all cases: 72 h
HepG2 [1] = assay: relative viability EC50 (midpoint between 100% and the lowest measured viability); higher = less toxic
Vero E6 [2] = assay: as above
U2OS [3] = assay: as above
Calu-3 [4] = assay: as above
Caco-2 [5] = assay: as above
HepG2 [6] = assay: cell viability relative to DMSO; higher = less toxic
Vero E6 [7] = assay: as above
U2OS [8] = assay: as above
Calu-3 [9] = assay: as above
Caco-2 [10] = assay: as above
HepG2 [11] = assay: drug sensitivity score (DSS) for viability; higher = more toxic; extreme values may be limits of the assay
Vero E6 [12] = assay: as above
U2OS [13] = assay: as above
Calu-3 [14] = assay: as above
Caco-2 [15] = assay: as above

| Structure (SMILES) | relative viability EC50 (HepG2 [1]) [µM] | relative viability EC50 (Vero E6 [2]) [µM] | relative viability EC50 (U2OS [3]) [µM] | relative viability EC50 (Calu-3 [4]) [µM] | relative viability EC50 (Caco-2 [5]) [µM] | cell viability (HepG2 [6]; 1 nM) [%] | cell viability (HepG2 [6]; 10 nM) [%] | cell viability (HepG2 [6]; 100 nM) [%] | cell viability (HepG2 [6]; 1000 nM) [%] | cell viability (HepG2 [6]; 10000 nM) [%] | cell viability (Vero E6 [7]; 1 nM) [%] | cell viability (Vero E6 [7]; 10 nM) [%] | cell viability (Vero E6 [7]; 100 nM) [%] | cell viability (Vero E6 [7]; 1000 nM) [%] | cell viability (Vero E6 [7]; 10000 nM) [%] | cell viability (U2OS [8]; 1 nM) [%] | cell viability (U2OS [8]; 10 nM) [%] | cell viability (U2OS [8]; 100 nM) [%] | cell viability (U2OS [8]; 1000 nM) [%] | cell viability (U2OS [8]; 10000 nM) [%] | cell viability (Calu-3 [9]; 1 nM) [%] | cell viability (Calu-3 [9]; 10 nM) [%] | cell viability (Calu-3 [9]; 100 nM) [%] | cell viability (Calu-3 [9]; 1000 nM) [%] | cell viability (Calu-3 [9]; 10000 nM) [%] | cell viability (Caco-2 [10]; 1 nM) [%] | cell viability (Caco-2 [10]; 10 nM) [%] | cell viability (Caco-2 [10]; 100 nM) [%] | cell viability (Caco-2 [10]; 1000 nM) [%] | cell viability (Caco-2 [10]; 10000 nM) [%] | drug sensitivity score (HepG2 [11]) | drug sensitivity score (Vero E6 [12]) | drug sensitivity score (U2OS [13]) | drug sensitivity score (Calu-3 [14]) | drug sensitivity score (Caco-2 [15]) |
| --- | --- | --- | --- | --- | --- | --- | --- | --- | --- | --- | --- | --- | --- | --- | --- | --- | --- | --- | --- | --- | --- | --- | --- | --- | --- | --- | --- | --- | --- | --- | --- | --- | --- | --- | --- |
| O=C(O)CCCCCCNC1c2ccccc2CCc2ccccc21 [amineptine] | > 10 | > 10 | > 10 | > 10 | > 10 | 109 | 102 | 93 | 98.8 | 105 | 104 | 107 | 99 | 100 | 97.2 | 98.8 | 101 | 97.9 | 99 | 98.9 | 101 | 95.3 | 111 | 96.2 | 102 | 90.6 | 99.7 | 99 | 103 | 110 | 0 | 0 | 0 | 0 | 0 |
| Nc1nccs1 [aminothiazole] | > 10 | > 10 | > 10 | > 10 | > 10 | 104 | 100 | 94.7 | 97.2 | 97.4 | 105 | 106 | 98.2 | 93.4 | 95.4 | 102 | 98.6 | 94.2 | 99.8 | 97.1 | 102 | 105 | 100 | 109 | 91.3 | 102 | 94.8 | 97.8 | 98.9 | 100 | 0 | 0 | 0 | 0 | 0 |
| O=C(O)c1cccc(-c2noc(-c3ccccc3F)n2)c1 [ataluren] | > 10 | > 10 | > 10 | > 10 | > 10 | 101 | 107 | 105 | 97.2 | 90.9 | 103 | 102 | 106 | 106 | 95.7 | 96.6 | 99.4 | 95.7 | 101 | 93.5 | 98.5 | 89.7 | 104 | 94.2 | 99.6 | 97 | 101 | 98.6 | 111 | 94.3 | 0 | 0 | 0 | 0 | 0 |
| Oc1ccc2ccccc2c1 [beta-naphthol] | > 10 | > 10 | > 10 | > 10 | > 10 | 94 | 90.7 | 102 | 89.1 | 99.4 | 94.4 | 99.5 | 98.7 | 104 | 90.7 | 102 | 99.6 | 104 | 97.2 | 104 | 114 | 98.4 | 104 | 114 | 116 | 102 | 90.3 | 99.1 | 89.8 | 83.2 | 0 | 0 | 0 | 0 | 0.6 |
| C[C@H]1C[C@H]2[C@@H]3CCC4=CC(=O)C=C[C@]4(C)[C@@]3(F)[C@@H](O)C[C@]2(C)[C@@]1(O)C(=O)CO [betamethasone] | > 10 | > 10 | > 10 | > 10 | > 10 | 101 ± 4.1 | 97 ± 4.6 | 99.4 ± 11 | 90.2 ± 15 | 89.7 ± 4.4 | 97 ± 4.5 | 91.7 ± 5.5 | 94.5 ± 8.6 | 95.4 ± 4.1 | 92.1 ± 6.5 | 99.6 ± 3.8 | 101 ± 1.3 | 94.5 ± 2.9 | 97.5 ± 2.7 | 92.4 ± 1.4 | 106 ± 9.1 | 107 ± 7.4 | 95.05 ± 0.49 | 102 ± 3.6 | 95 ± 3.5 | 101 ± 2.2 | 92.85 ± 0.49 | 84.5 ± 5.2 | 99.1 ± 5.8 | 92.9 ± 12 | 1.3 ± 1.7 | 0.1 ± 0.14 | 0 | 0 | 0.25 ± 0.35 |
| CC(C)(C)N1CCC(c2ccccc2)(c2ccccc2)CC1 [budipine] | > 10 | > 10 | > 10 | > 10 | > 10 | 88.8 | 95.8 | 101 | 102 | 88.9 | 96.1 | 91.8 | 91.9 | 93.9 | 98.8 | 91.9 | 99 | 97.3 | 102 | 97.6 | 96.9 | 97.3 | 101 | 101 | 96.7 | 98.4 | 103 | 86.3 | 102 | 82.7 | 0 | 0 | 0 | 0 | 0.3 |
